Measurements taken from publication PMC12406204 (Journal of Medicinal Chemistry, 2025).

How the values were obtained:
[1] = target: CB1R (Homo sapiens, UniProt P21554); assay: CB1R radioligand binding competition ([3H]CP55,940); parameters: host or cells: CHO-CB1 C3 cell line; settings: for CB1R % at 1 μM: percentage displacement of specific [3H]CP 55,940 binding at 1 μM, n = 2; for Ki: displacement of [3H]CP 55,940, membranes of CHO-CB1 C3 cells, n = 3
[2] = target: CB2R (Homo sapiens, UniProt P34972); assay: CB2R radioligand binding competition ([3H]CP55,940); parameters: expressed in transfected cells; host or cells: HEK-293T (HEK-CB2 cell line); settings: for Ki: displacement of [3H]CP 55,940, membranes of HEK-293T cells, n = 3; for SI Ki CB1R/Ki CB2R: selectivity index, affinity ratio; for CB2R % at 1 μM: percentage displacement of specific [3H]CP 55,940 binding at 1 μM, n = 2
Sequence of CB2R (P34972 whole entry): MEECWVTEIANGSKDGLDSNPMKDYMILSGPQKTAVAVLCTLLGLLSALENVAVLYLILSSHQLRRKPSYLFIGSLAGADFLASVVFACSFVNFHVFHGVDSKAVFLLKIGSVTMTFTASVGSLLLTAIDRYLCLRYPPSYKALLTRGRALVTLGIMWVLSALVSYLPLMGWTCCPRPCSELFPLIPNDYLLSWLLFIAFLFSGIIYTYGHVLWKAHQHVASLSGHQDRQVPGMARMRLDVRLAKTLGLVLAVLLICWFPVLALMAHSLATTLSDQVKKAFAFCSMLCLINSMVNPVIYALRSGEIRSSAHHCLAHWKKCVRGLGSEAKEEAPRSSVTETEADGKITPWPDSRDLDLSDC

Sequence of CB1R (P21554 whole entry): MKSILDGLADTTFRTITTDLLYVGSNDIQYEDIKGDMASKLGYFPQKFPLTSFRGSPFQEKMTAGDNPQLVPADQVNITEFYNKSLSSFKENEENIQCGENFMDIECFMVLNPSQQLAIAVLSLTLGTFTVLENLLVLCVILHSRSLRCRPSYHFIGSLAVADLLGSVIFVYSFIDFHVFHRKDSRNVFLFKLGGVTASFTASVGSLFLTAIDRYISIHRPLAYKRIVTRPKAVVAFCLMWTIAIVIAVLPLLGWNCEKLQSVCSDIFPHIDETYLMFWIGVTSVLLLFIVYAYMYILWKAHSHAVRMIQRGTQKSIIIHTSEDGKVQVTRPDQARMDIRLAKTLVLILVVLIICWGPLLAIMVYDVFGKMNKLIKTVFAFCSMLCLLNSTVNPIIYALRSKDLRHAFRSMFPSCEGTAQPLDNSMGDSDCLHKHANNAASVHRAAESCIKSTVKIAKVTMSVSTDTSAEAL

SMILES | CB1R % at 1 μM [1] | Ki [2] | SI Ki CB1R/Ki CB2R [2] | CB2R % at 1 μM [2] | Ki [1]
CCCCCn1cc(C(=O)N2CCCC[C@@H]2C(N)=O)c2ccccc21 [18b] | 10% | 136 ± 5 nM | >100 | – | –
CCCCCn1cc(C(=O)N2CCC[C@H]2C(N)=O)c2ccccc21 [17a] | 2% | – | – | 24% | –
COC(=O)[C@H]1CCCN1C(=O)c1nn(CCCCCF)c2ccccc12 [15l] | 1% | 513 ± 3 nM | >100 | – | –
COC(=O)[C@@H]1CCCN1C(=O)c1nn(Cc2ccc(F)cc2)c2ccccc12 [15o] | – | 16.5 ± 1.1 nM | 3 | – | 46.2 ± 2.3 nM
COC(=O)[C@H]1CCCCN1C(=O)c1nn(Cc2ccc(F)cc2)c2ccccc12 [16p] | – | 48.4 ± 1.8 nM | >100 | – | –
NC(=O)[C@@H]1CCCCN1C(=O)c1cn(Cc2ccc(F)cc2)c2ccccc12 [18g] | 21% | 115 ± 5 nM | >100 | – | –
COC(=O)[C@@H]1CCCCN1C(=O)c1cn(CC2CCCCC2)c2ccccc12 [16e] | – | 45.1 ± 1.7 nM | 3 | – | 122 ± 8 nM
CCCCCn1cc(C(=O)N2CCC[C@@H]2C(N)=O)c2ccccc21 [17b] | 3% | – | – | 17% | –
COC(=O)[C@@H]1CCCCN1C(=O)c1cn(Cc2ccc(F)cc2)c2ccccc12 [16g] | – | 22.5 ± 1.1 nM | 4 | – | 90.3 ± 2.3 nM
NC(=O)[C@@H]1CCCN1C(=O)c1nn(CCCCCF)c2ccccc12 [17k] | 2% | – | – | 17% | –
COC(=O)[C@@H]1CCCCN1C(=O)c1cn(CCCCCF)c2ccccc12 [16c] | – | 84.1 ± 1.9 nM | 8 | – | 716 ± 16 nM
CCCCCn1nc(C(=O)N2CCC[C@@H]2C(=O)OC)c2ccccc21 [15j] | 4% | 208 ± 5 nM | >100 | – | –
COC(=O)[C@@H]1CCCCN1C(=O)c1nn(Cc2ccc(F)cc2)c2ccccc12 [16o] | – | 4.1 ± 0.12 nM | 16 | – | 65.4 ± 2.4 nM
CCc1c(C(=O)NN2CCCCC2)nn(-c2ccc(Cl)cc2Cl)c1-c1ccc(Br)cc1 [Surinabant, reference compound] | – | 400 ± 6 nM | 0.0075 | – | 3 ± 0.2 nM
NC(=O)[C@H]1CCCN1C(=O)c1nn(CC2CCCCC2)c2ccccc12 [17n] | 2% | – | – | 28% | –
COc1ccc2c(c1)c(CCN1CCOCC1)c(C)n2C(=O)c1cccc(Cl)c1Cl [GW405833, reference compound] | – | 5.8 ± 0.4 nM | 822 | – | 4770 ± 110 nM
CCCCCn1nc(C(=O)N2CCCC[C@@H]2C(N)=O)c2ccccc21 [18j] | 2% | 145 ± 6 nM | >100 | – | –
COC(=O)[C@H]1CCCCN1C(=O)c1nn(CCCCCF)c2ccccc12 [16l] | 5% | 127 ± 5 nM | >100 | – | –
COC(=O)[C@H]1CCCN1C(=O)c1nn(CC2CCCCC2)c2ccccc12 [15n] | 2% | 99.3 ± 2.8 nM | >100 | – | –
COC(=O)[C@@H]1CCCN1C(=O)c1cn(CC2CCCCC2)c2ccccc12 [15e] | – | 38.3 ± 2.1 nM | 0.3 | – | 11.3 ± 0.5 nM

SMILES | CB1R % at 1 μM [1] | Ki [2] | SI Ki CB1R/Ki CB2R [2] | CB2R % at 1 μM [2] | Ki [1]
NC(=O)[C@H]1CCCCN1C(=O)c1nn(CC2CCCCC2)c2ccccc12 [18n] | 26% | 112 ± 4 nM | >100 | – | –
CCCCCn1nc(C(=O)N2CCC[C@H]2C(=O)OC)c2ccccc21 [15i] | – | 75.9 ± 2.2 nM | 4 | – | 337 ± 9 nM
NC(=O)[C@H]1CCCCN1C(=O)c1cn(CCCCCF)c2ccccc12 [18d] | 15% | 169 ± 6 nM | >100 | – | –
CCCCCn1cc(C(=O)N2CCCC[C@H]2C(=O)OC)c2ccccc21 [16a] | – | 114 ± 6 nM | 6 | – | 644 ± 13 nM
NC(=O)[C@@H]1CCCN1C(=O)c1cn(Cc2ccc(F)cc2)c2ccccc12 [17g] | 3% | – | – | 20% | –
COC(=O)[C@H]1CCCCN1C(=O)c1nn(CC2CCCCC2)c2ccccc12 [16n] | 3% | 164 ± 5 nM | >100 | – | –
NC(=O)[C@H]1CCCN1C(=O)c1nn(Cc2ccc(F)cc2)c2ccccc12 [17p] | 4% | – | – | 12% | –
CCCCCn1nc(C(=O)N2CCC[C@H]2C(N)=O)c2ccccc21 [17i] | 2% | – | – | 31% | –
CCCCCn1cc(C(=O)N2CCCC[C@H]2C(N)=O)c2ccccc21 [18a] | 3% | 111 ± 6 nM | >100 | – | –
COC(=O)[C@H]1CCCN1C(=O)c1nn(Cc2ccc(F)cc2)c2ccccc12 [15p] | 5% | 157 ± 4 nM | >100 | – | –
NC(=O)[C@@H]1CCCCN1C(=O)c1nn(CC2CCCCC2)c2ccccc12 [18m] | 21% | 59.5 ± 2.8 nM | >100 | – | –
NC(=O)[C@@H]1CCCN1C(=O)c1nn(CC2CCCCC2)c2ccccc12 [17m] | 1% | – | – | 27% | –
COC(=O)[C@H]1CCCCN1C(=O)c1cn(CCCCCF)c2ccccc12 [16d] | 24% | 251 ± 7 nM | >100 | – | –
COC(=O)[C@H]1CCCN1C(=O)c1cn(Cc2ccc(F)cc2)c2ccccc12 [15h] | 10% | 599 ± 13 nM | >100 | – | –
NC(=O)[C@H]1CCCN1C(=O)c1cn(Cc2ccc(F)cc2)c2ccccc12 [17h] | 4% | – | – | 7% | –
NC(=O)[C@@H]1CCCCN1C(=O)c1cn(CCCCCF)c2ccccc12 [18c] | 7% | 132 ± 4 nM | >100 | – | –
COC(=O)[C@@H]1CCCN1C(=O)c1nn(CCCCCF)c2ccccc12 [15k] | – | 41.9 ± 2.1 nM | 4 | – | 173 ± 5 nM
COC(=O)[C@@H]1CCCCN1C(=O)c1nn(CC2CCCCC2)c2ccccc12 [16m] | – | 5.2 ± 0.4 nM | 31 | – | 162 ± 3 nM
NC(=O)[C@@H]1CCCCN1C(=O)c1nn(CCCCCF)c2ccccc12 [18k] | 3% | 151 ± 6 nM | >100 | – | –
NC(=O)[C@@H]1CCCN1C(=O)c1cn(CCCCCF)c2ccccc12 [17c] | 1% | – | – | 15% | –

SMILES | CB1R % at 1 μM [1] | Ki [2] | SI Ki CB1R/Ki CB2R [2] | CB2R % at 1 μM [2] | Ki [1]
NC(=O)[C@H]1CCCCN1C(=O)c1nn(CCCCCF)c2ccccc12 [18l] | 3% | 143 ± 5 nM | >100 | – | –
CCCCCn1cc(C(=O)N2CCCC[C@@H]2C(=O)OC)c2ccccc21 [16b] | 18% | 273 ± 4 nM | >100 | – | –
NC(=O)[C@H]1CCCN1C(=O)c1cn(CCCCCF)c2ccccc12 [17d] | 5% | – | – | 16% | –
CCCCCn1cc(C(=O)N2CCC[C@@H]2C(=O)OC)c2ccccc21 [15b] | 4% | – | – | 25% | –
NC(=O)[C@@H]1CCCN1C(=O)c1nn(Cc2ccc(F)cc2)c2ccccc12 [17o] | 4% | 628 ± 21 nM | >100 | – | –
COC(=O)[C@H]1CCCCN1C(=O)c1cn(Cc2ccc(F)cc2)c2ccccc12 [16h] | 35% | 109 ± 4 nM | >100 | – | –
CCCCCn1nc(C(=O)N2CCCC[C@H]2C(N)=O)c2ccccc21 [18i] | 2% | 91.8 ± 4.9 nM | >100 | – | –
NC(=O)[C@@H]1CCCN1C(=O)c1cn(CC2CCCCC2)c2ccccc12 [17e] | 6% | 288 ± 7 nM | >100 | – | –
COC(=O)[C@H]1CCCN1C(=O)c1cn(CC2CCCCC2)c2ccccc12 [15f] | 32% | 463 ± 11 nM | >100 | – | –
COC(=O)[C@H]1CCCCN1C(=O)c1cn(CC2CCCCC2)c2ccccc12 [16f] | 37% | 93.1 ± 3.3 nM | >100 | – | –
COC(=O)[C@H]1CCCN1C(=O)c1cn(CCCCCF)c2ccccc12 [15d] | 3% | – | – | 26% | –
COC(=O)[C@@H]1CCCN1C(=O)c1cn(Cc2ccc(F)cc2)c2ccccc12 [15g] | – | 47.7 ± 1.9 nM | 0.3 | – | 14.4 ± 0.6 nM
NC(=O)[C@H]1CCCCN1C(=O)c1cn(Cc2ccc(F)cc2)c2ccccc12 [18h] | 3% | 207 ± 9 nM | >100 | – | –
COC(=O)[C@@H]1CCCCN1C(=O)c1nn(CCCCCF)c2ccccc12 [16k] | – | 10.6 ± 0.7 nM | 37 | – | 392 ± 5 nM
NC(=O)[C@H]1CCCN1C(=O)c1cn(CC2CCCCC2)c2ccccc12 [17f] | 3% | 411 ± 16 nM | >100 | – | –
COC(=O)[C@@H]1CCCN1C(=O)c1cn(CCCCCF)c2ccccc12 [15c] | – | 71.7 ± 2 nM | 0.8 | – | 55.9 ± 2.7 nM
CCCCCn1nc(C(=O)N2CCC[C@@H]2C(N)=O)c2ccccc21 [17j] | 3% | – | – | 28% | –
CCCCCn1cc(C(=O)N2CCC[C@H]2C(=O)OC)c2ccccc21 [15a] | – | 189 ± 10 nM | 0.6 | – | 121 ± 6 nM
NC(=O)[C@H]1CCCN1C(=O)c1nn(CCCCCF)c2ccccc12 [17l] | 4% | – | – | 25% | –
COC(=O)[C@@H]1CCCN1C(=O)c1nn(CC2CCCCC2)c2ccccc12 [15m] | – | 20.7 ± 0.6 nM | 3 | – | 73.4 ± 2.9 nM
